Test results: ChEMBL document CHEMBL1201862, “PubChem BioAssay data set” (2004)
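The compound was tested at five concentrations on cells cultured in 96-well plates, with a 48-hour exposure period. The concentration for 50% growth inhibition is given as GI50.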 Activity calls are given as the source filed them. Rule as the data show it: active = GI50 up to about 1.1 µM and inactive = higher.

Legend:
Assay in all cases: inhibition of tumour cell growth, NCI panel, 48 h
[1] = test system: A549
[2] = test system: CCRF-CEM
[3] = test system: DU-145
[4] = test system: HCT-116
[5] = test system: HOP-62
[6] = test system: KM12
[7] = test system: MDA-MB-231
[8] = test system: MOLT-4
[9] = test system: Malme-3M
[10] = test system: NCI-H226
[11] = test system: NCI-H522
[12] = test system: NCI/ADR-RES
[13] = test system: OVCAR-3
[14] = test system: SF-295
[15] = test system: SK-OV-3
[16] = test system: SNB-19
[17] = test system: U-251
[18] = test system: UACC-62
[19] = test system: COLO 205

Structure (SMILES)	GI50 [1]	GI50 [2]	GI50 [3]	GI50 [4]	GI50 [5]	GI50 [6]	GI50 [7]	GI50 [8]	GI50 [9]	GI50 [10]	GI50 [11]	GI50 [12]	GI50 [13]	GI50 [14]	GI50 [15]	GI50 [16]	GI50 [17]	GI50 [18]	GI50 [19]
CC(Cc1ccc(O)cc1)NCC(O)c1ccc(O)c(O)c1 (stereo not given)	> 100 µM (inactive)	> 100 µM (inactive)	> 100 µM (inactive)	> 100 µM (inactive)	> 100 µM (inactive)	> 100 µM (inactive)	3.35 µM (inactive)	73.5 µM (inactive)	> 100 µM (inactive)	> 100 µM (inactive)	> 100 µM (inactive)	> 100 µM (inactive)	81.7 µM (inactive)	> 100 µM (inactive)	> 100 µM (inactive)	> 100 µM (inactive)	> 100 µM (inactive)	> 100 µM (inactive)	
CC(=O)NC1C(OC(C)C(=O)NC(C)C(=O)NC(CCC(=O)NCCCCCNc2ccc([N+](=O)[O-])c3[nH]c4ccccc4c(=O)c23)C(N)=O)C(O)C(CO)OC1(C)OCc1ccccc1 (stereo not given)	50.8 µM (inactive)	> 100 µM (inactive)	64.6 µM (inactive)	23.7 µM (inactive)	89.7 µM (inactive)	79.3 µM (inactive)	46.9 µM (inactive)	24.8 µM (inactive)	> 100 µM (inactive)	89.9 µM (inactive)	> 100 µM (inactive)	> 100 µM (inactive)	> 100 µM (inactive)	> 100 µM (inactive)	> 100 µM (inactive)	> 100 µM (inactive)	> 100 µM (inactive)	> 100 µM (inactive)	> 100 µM (inactive)
O=C1CCCc2cc3c(cc21)CC1(C3)Cc2ccc3c(c2C1)C(=O)CCC3 (stereo not given)	21.1 µM (inactive)	6.92 µM (inactive)	39.8 µM (inactive)	12.2 µM (inactive)	67.9 µM (inactive)	14 µM (inactive)	29.2 µM (inactive)	4.12 µM (inactive)	9.4 µM (inactive)	6.38 µM (inactive)	20.9 µM (inactive)	6.25 µM (inactive)	15.9 µM (inactive)	18.5 µM (inactive)	> 100 µM (inactive)	67.6 µM (inactive)	39.2 µM (inactive)		14.4 µM (inactive)
COc1ccc(N2C(=O)CC(c3c[nH]c4ncccc34)C2=O)cc1 (stereo not given)	> 100 µM (inactive)	6.4 µM (inactive)	> 100 µM (inactive)	22.5 µM (inactive)	> 100 µM (inactive)	> 100 µM (inactive)	20 µM (inactive)	> 20.7 µM (inactive)	22 µM (inactive)	> 100 µM (inactive)	7.98 µM (inactive)	> 53 µM (inactive)	20.7 µM (inactive)	> 100 µM (inactive)	> 100 µM (inactive)	> 100 µM (inactive)	> 100 µM (inactive)	> 50.9 µM (inactive)	18.8 µM (inactive)
N#CC1(C#N)C(C#N)(C#N)C1(C#N)C(N)=O	> 100 µM (inactive)	> 100 µM (inactive)	> 100 µM (inactive)	> 100 µM (inactive)	> 100 µM (inactive)	> 100 µM (inactive)	> 100 µM (inactive)	> 100 µM (inactive)	> 100 µM (inactive)	> 100 µM (inactive)	> 100 µM (inactive)	> 100 µM (inactive)		> 100 µM (inactive)	> 100 µM (inactive)	> 100 µM (inactive)	> 100 µM (inactive)	> 100 µM (inactive)	> 100 µM (inactive)
Cc1cc2c3c(nc4ccccc42)C(=O)c2ccccc2-c3n1	7.1 µM (inactive)	5.16 µM (inactive)	23.5 µM (inactive)	8.59 µM (inactive)	6.18 µM (inactive)	1.02 µM (active)	18 µM (inactive)	3.34 µM (inactive)		21 µM (inactive)	1.68 µM (inactive)	6.53 µM (inactive)	0.135 µM (active)	10.1 µM (inactive)	14.8 µM (inactive)	45.8 µM (inactive)	16.1 µM (inactive)	1.8 µM (inactive)	16.8 µM (inactive)
CN(C)CCCNc1c2c(=O)n(C)c(=O)nc-2n(C)c2ccccc12	4.74 µM (inactive)	3.4 µM (inactive)	6.41 µM (inactive)	3.69 µM (inactive)	3.75 µM (inactive)	3.58 µM (inactive)	6 µM (inactive)	3.01 µM (inactive)	3.11 µM (inactive)	5.07 µM (inactive)	2.45 µM (inactive)	67 µM (inactive)	1.25 µM (inactive)	6.43 µM (inactive)	6.24 µM (inactive)	6.56 µM (inactive)	3.26 µM (inactive)	5.22 µM (inactive)	3.21 µM (inactive)
O=C1CC=C2C3CC4N(CCC45c4ccccc4N1C25)C/C3=C\CO (stereo not given)	> 100 µM (inactive)	> 100 µM (inactive)	> 100 µM (inactive)	> 100 µM (inactive)		> 100 µM (inactive)	> 100 µM (inactive)	> 100 µM (inactive)	> 100 µM (inactive)	> 100 µM (inactive)	> 100 µM (inactive)	> 100 µM (inactive)	> 100 µM (inactive)	> 100 µM (inactive)	> 100 µM (inactive)	> 100 µM (inactive)	> 100 µM (inactive)	> 100 µM (inactive)	> 100 µM (inactive)
COc1ccc(COCC[C@H](C)OC2OC(CO[Si](C)(C)C(C)(C)C)C(OC(=O)CCCN=[N+]=[N-])C(OC(=O)CCCN=[N+]=[N-])C2OC(=O)CCCN=[N+]=[N-])cc1 (stereo not given in full)	> 100 µM (inactive)	17.5 µM (inactive)	> 100 µM (inactive)	19.5 µM (inactive)	97.5 µM (inactive)	88.1 µM (inactive)	> 100 µM (inactive)		> 100 µM (inactive)	8.39 µM (inactive)	18.7 µM (inactive)	19.1 µM (inactive)	61.8 µM (inactive)	89.3 µM (inactive)	> 100 µM (inactive)		29.6 µM (inactive)	58.9 µM (inactive)	25.6 µM (inactive)
CC(=O)n1cc(C2CC23N=C(c2ccccc2)OC3=O)c2ccccc21 (stereo not given)	21.7 µM (inactive)	1.12 µM (inactive)	16 µM (inactive)	14.4 µM (inactive)	21.4 µM (inactive)	20.2 µM (inactive)	20.8 µM (inactive)		20.6 µM (inactive)	23.6 µM (inactive)	15.3 µM (inactive)	18.2 µM (inactive)	18 µM (inactive)	36.7 µM (inactive)	49.9 µM (inactive)	31.3 µM (inactive)	18.1 µM (inactive)	16.9 µM (inactive)	18.4 µM (inactive)
C[C@@]12[C@H]3CC[C@@H]1[C@H](O)C(=O)N2CC3	> 100 µM (inactive)	> 100 µM (inactive)	> 100 µM (inactive)		> 100 µM (inactive)	> 100 µM (inactive)	> 100 µM (inactive)	> 100 µM (inactive)	> 100 µM (inactive)	> 100 µM (inactive)	> 100 µM (inactive)	> 100 µM (inactive)	> 100 µM (inactive)	> 100 µM (inactive)	> 100 µM (inactive)	> 100 µM (inactive)	> 100 µM (inactive)	> 100 µM (inactive)	> 100 µM (inactive)
